Assay results as given in US20240300886A1, “ARYLCYCLOHEXYLAMINE DERIVATIVES AND THEIR USE IN THE TREATMENT OF PSYCHIATRIC DISORDERS” (GILGAMESH PHARMACEUTICALS, INC., priority 2021, published 2024).
Where two headings read alike, the source gives them in different places.

Legend:
[1] = Oral bioavailability in mice, Method A (plasma and brain PK); type: in vivo, CD-1 mice; conditions: for half-life / Cmax / AUC(0-inf): male; for F: 10 mg/kg
Protocol: Animals. Male CD-1 mice were used in these studies. Animals were randomly assigned to treatment groups and were fasted for 4 h before dosing.
Drugs. Test compounds were dissolved in normal saline and administered intravenously (iv) or orally (po) at a dose of 10 mg/kg (calculated based on freebase) and at a volume of 5 mL/kg body weight. Compounds were tested as the racemates or pure enantiomers, as indicated.
Sample Collection and Bioanalysis. Blood samples were collected under 2,2,2-tribromoethanol anesthesia (150 mg/kg, ip) from the orbital sinus at 0.083, 0.25, 0.5, 1, 2, 4, 8 and 24 h (4 animals per time point) into microcontainers containing K2EDTA. Immediately after collection of blood, mice were euthanized by cervical dislocation and brain samples were collected at the same time points. All samples were immediately processed, flash-frozen, and stored at −70° C. until subsequent analysis. Plasma samples were separated by centrifugation of is whole blood and aliquots (50 μL) were mixed with 200 μL of internal standard solution (400 ng/mL in 1:1 v/v CH3CN:MeOH). After mixing by pipetting and centrifuging for 4 min at 6,000 rpm, 0.5 μL of each supernatant was analyzed for drug using a fit-for-purpose liquid chromatography-tandem mass spectrometry (LC-MS/MS) method, with authentic samples of each analyte used for calibration and identification. Brain samples (weight 100 mg±1 mg) were dispersed in 500 μL of internal standard solution (400 ng/mL in 4:1 v/v MeOH:water) using zirconium oxide beads (115 mg±5 mg) in The Bullet Blender® homogenizer for 30 s at speed 8. After homogenization, the samples were centrifuged for 4 min at 14,000 rpm and 0.5 μL of each supernatant was analyzed for drug using a fit-for-purpose LC-MS/MS method, with authentic samples of each analyte used for calibration and identification.
Data Analysis. The drug concentrations of samples below the lower limit of quantitation (LLOQ) were designated as zero. Pharmacokinetic data analysis was performed using noncompartmental, bolus injection or extravascular input analysis models in WinNonlin 5.2 (PharSight). Data points below LLOQ were presented as missing to improve validity of tin calculations.

[2] = Comparative oral pharmacokinetics of 2R, 2S and 2-F-DCK in mice; type: in vivo, C57BL/6 mice; conditions: 10 mg/kg po; for Cmax / half-life / AUC(0-t): male, C57BL/6; for half-life: read-out: t1/2 (po); for AUC(0-t): read-out: AUC0-last (po) (converted)
Protocol: Animals. Male C57BL/6 mice were used in these studies. Aminals were randomly assigned to treatment groups and were fasted for 4 h before dosing.
Drugs. Test compounds were dissolved in a vehicle consisting of normal saline, They were then administered orally (po) at a dose of 10 mg/kg (calculated based on freebase) and at a volume of 10 mL/kg body weight.
Sample Collection and Bioanalysis. Blood samples (approximately 60 μL) were collected under light isoflurane anesthesia (Surgivet®) from the retro orbital plexus at 0.08, 0.25, 0.5, 1, 2, 4, 8, and 24 h (4 animals per time point). Immediately after blood collection, plasma was harvested by centrifugation at 4,000 rpm for 10 min at 4° C. and samples were stored at −70±10° C. until bioanalysis. Following blood collection, animals were immediately sacrificed, the abdominal vena-cava was cut open, and the whole body was perfused from the heart using 10 mL of normal saline, and brain samples were collected from all animals. After isolation, brain samples were rinsed three times in ice-cold normal saline (for 5-10 seconds/rinse using ˜5-10 mL normal saline in disposable petri dish for each rinse) and dried on blotting paper. Brain samples were homogenized using ice-cold phosphate-buffered saline (pH 7.4). Total homogenate volume was three times the tissue weight. All homogenates were stored at −70±10° C. until bioanalysis. For bioanalysis, 25 μL aliquots of plasma/brain study samples or spiked plasma/brain calibration standards were added to individual pre-labeled micro-centrifuge tubes followed by 100 μL of an internal standard solution (glipizide, 500 ng/mL in acetonitrile) except for blanks, where 100 μL of acetonitrile was added. Samples were vortexed for 5 minutes and then centrifuged for 10 minutes at 4,000 rpm at 4° C. Following centrifugation, 100 μL of each clear supernatant was transferred to a 96 well plate and analyzed with a fit-for-purpose LC-MS/MS method, with authentic samples of each analyte used for calibration and identification.
Data Analysis. Pharmacokinetic parameters were estimated using the non-compartmental analysis tool of Phoenix® WinNonlin software (Ver 8.0).

[3] = biological target: recombinant human NMDA receptor (GRIN1/GRIN2B) (Homo sapiens (Human), UniProt Q05586+Q13224); assay: Unblocking kinetics at the NMDA receptor in Xenopus laevis oocytes (two-electrode voltage clamp); type: cell-based; conditions: for Unblocking T1/2 ± SEM: compounds applied at 3×IC50, -70 mV, n ≥ 5
recombinant human NMDA receptor (GRIN1/GRIN2B), sequence (Q13224 whole entry, looked up, other chains not shown): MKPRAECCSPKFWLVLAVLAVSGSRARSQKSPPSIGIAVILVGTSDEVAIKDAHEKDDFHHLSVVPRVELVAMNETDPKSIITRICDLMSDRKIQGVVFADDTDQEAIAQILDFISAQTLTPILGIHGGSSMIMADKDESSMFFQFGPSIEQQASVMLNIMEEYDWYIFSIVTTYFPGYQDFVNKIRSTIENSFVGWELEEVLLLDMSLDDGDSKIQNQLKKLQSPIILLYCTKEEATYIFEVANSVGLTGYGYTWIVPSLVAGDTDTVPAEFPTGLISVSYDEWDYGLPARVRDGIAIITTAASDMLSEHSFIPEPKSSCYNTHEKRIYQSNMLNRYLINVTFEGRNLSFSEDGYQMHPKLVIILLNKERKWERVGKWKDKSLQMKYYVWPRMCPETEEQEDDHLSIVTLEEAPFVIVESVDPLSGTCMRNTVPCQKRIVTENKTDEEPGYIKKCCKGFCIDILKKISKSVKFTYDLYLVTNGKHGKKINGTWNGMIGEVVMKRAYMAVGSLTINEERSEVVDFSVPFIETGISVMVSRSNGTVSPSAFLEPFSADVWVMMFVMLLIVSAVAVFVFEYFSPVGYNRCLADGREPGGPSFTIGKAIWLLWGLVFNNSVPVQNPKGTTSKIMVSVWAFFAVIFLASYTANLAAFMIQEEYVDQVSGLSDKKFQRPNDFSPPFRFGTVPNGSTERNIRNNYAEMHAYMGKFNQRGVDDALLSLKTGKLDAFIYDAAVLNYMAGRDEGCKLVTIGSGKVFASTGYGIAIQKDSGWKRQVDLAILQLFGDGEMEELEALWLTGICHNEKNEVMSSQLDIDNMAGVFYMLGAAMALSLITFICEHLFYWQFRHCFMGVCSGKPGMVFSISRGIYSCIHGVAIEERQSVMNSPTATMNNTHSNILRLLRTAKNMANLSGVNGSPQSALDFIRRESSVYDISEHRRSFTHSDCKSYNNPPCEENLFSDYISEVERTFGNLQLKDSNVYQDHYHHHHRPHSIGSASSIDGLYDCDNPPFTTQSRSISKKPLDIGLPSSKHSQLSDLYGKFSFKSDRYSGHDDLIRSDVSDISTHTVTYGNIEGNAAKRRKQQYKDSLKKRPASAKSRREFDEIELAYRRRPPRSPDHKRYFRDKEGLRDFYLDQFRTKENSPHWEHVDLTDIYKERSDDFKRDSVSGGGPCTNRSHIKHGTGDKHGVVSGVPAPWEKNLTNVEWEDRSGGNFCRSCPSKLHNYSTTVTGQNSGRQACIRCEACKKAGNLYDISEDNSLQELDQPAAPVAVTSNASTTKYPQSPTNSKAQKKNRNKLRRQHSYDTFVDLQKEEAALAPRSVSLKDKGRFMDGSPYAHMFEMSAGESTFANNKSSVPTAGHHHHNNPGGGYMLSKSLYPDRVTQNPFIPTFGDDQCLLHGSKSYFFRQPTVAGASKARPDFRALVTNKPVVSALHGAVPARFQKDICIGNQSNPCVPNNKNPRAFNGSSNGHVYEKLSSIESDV
Protocol: Compounds 2R, 2S, and 2-(2-fluorophenyl)-2-(methylamino)cyclohexan-1-one 2-F-DCK were tested for unblocking kinetics at the NMDA receptor in Xenopus laevis oocytes expressing recombinant human NMDA receptor (GRIN1/GRIN2B) (Table 22).
Experimental Procedure. Oocytes were harvested from adult Xenopus laevis and incubated in 96 well plates for two to four days prior to recordings. Plasmids containing cDNA encoding for human NMDA receptor subunits GRIN1 and GRIN2B were transcribed using the mMessage mMachine T7 transcription kit (Ambion, USA). The Roboocyte automated injection system was used for injection of cRNA coding for hNMDA receptor subunits at a concentration of 100 ng/μL per subunit. Oocytes were clamped to a holding potential of −70 mV and induced currents after compound application were sampled at 200 Hz at room temperature. Agonist induced currents were recorded with a two-electrode voltage clamp. To determine the unblocking kinetics, glutamate and glycine (3 and 10 μM, respectively) were applied to the oocytes and the current recorded for 90 s. Then, compounds were applied at 3×IC50 for 120 s and the currents recorded.

[4] = biological target: serotonin transporter (SERT) (Homo sapiens (Human), UniProt P31645); assay: SERT competition radioligand binding ([3H]imipramine); conditions: for Ki: Human recombinant (CHO cells), 2.0 nM [3H]imipramine
Protocol: Disclosed compounds were tested for their binding affinity at the serotonin transporter (SERT) using a competition radioligand binding assay (Eurofins Cerep). Assay conditions are described in Table 16 below.

[5] = Stability in liver microsomes (Example 21), SD rat; type: in vitro ADME; conditions: male, pH 7.4, 0.5 mg/mL protein
Protocol: General Procedure. Briefly, test compounds (final concentration 1 μM) were incubated in duplicate with liver microsomes from male animals of the indicated species (final protein concentration 0.5 mg/mL) in 50 mM sodium phosphate buffer (pH 7.4) with or without NADPH (1 mM). Total incubation volume was 500 μL. At 0, 5, 15, 30, and 60 min, aliquots of 50 μL were withdrawn, quenched with acetonitrile (150 μL), and analyzed for parent compound remaining using a fit-for-purpose LC-MS/MS method. Intrinsic clearance and half-life were calculated. Clearance values below zero were rounded to zero.

| SMILES | Cmax ([2]; mouse brain) [ng/g] | half-life ([2]; mouse brain) [min] | Cmax ([2]; mouse plasma) [ng/mL] | AUC(0-t) ([2]; mouse plasma) [ng·h/mL] | half-life ([2]; mouse plasma) [min] | AUC0-last (po) ([2]; mouse brain) [ng·min/g] | half-life for unblocking compared to 2-F-DCK (in words) [3] | Unblocking T1/2 ± SEM [3] [min] | Ki [4] [µM] | microsomal CLint at 1 μM [5] [µL/min/mg] | further results |
| --- | --- | --- | --- | --- | --- | --- | --- | --- | --- | --- | --- |
| CNC1(c2ccccc2Cl)CCCCC1=O (racemic) [racemic ketamine, ketamine] |  |  |  |  |  |  |  |  |  |  | half-life ([1]; CD-1, mouse brain, 10 mg/kg iv, read-out: t1/2 (iv)): 8.66 min; Cmax ([1]; CD-1, mouse brain, 10 mg/kg po): 521 ng/g; half-life ([1]; CD-1, mouse brain, 10 mg/kg po, read-out: t1/2 (po)): 12.2 min; AUC(0-inf) ([1]; CD-1, mouse plasma, 10 mg/kg iv, read-out: AUC0-inf (iv) (converted)): 633 ng·h/mL; half-life ([1]; CD-1, mouse plasma, 10 mg/kg iv, read-out: t1/2 (iv)): 8.46 min; Cmax ([1]; CD-1, mouse plasma, 10 mg/kg po): 253 ng/mL; AUC(0-inf) ([1]; CD-1, mouse plasma, 10 mg/kg po, read-out: AUC0-inf (po) (converted)): 96.8 ng·h/mL; half-life ([1]; CD-1, mouse plasma, 10 mg/kg po, read-out: t1/2 (po)): 11.5 min; AUC0-inf (iv) ([1]; mouse brain, 10 mg/kg iv): 97,000 ng*min/g; AUC0-inf (po) ([1]; mouse brain, 10 mg/kg po): 6,030 ng*min/g; F ([1]; mouse brain, calculated based on brain exposure): 6.2%; F ([1]; mouse plasma): 15% |
| CN[C@@]1(c2ccc(F)cc2)CCCCC1=O [Compound 2R, (R)-2-(4-fluorophenyl)-2(methylamino)cyclohexan-1-one] | 3280 | 178 | 1180 | 1120 | 83 | 200464 | much shorter half-life for unblocking | 0.378 ± 0.0383 | 6.2 | 16.2 | SERT binding potency relative to 2S (more potent) ([4]; human recombinant SERT): ~2 fold |
| CN[C@]1(c2ccc(F)cc2)CCCCC1=O [Compound 2S, (S)-2-(4-fluorophenyl)-2-(methylamino)cyclohexan-1-one] | 3540 | 131 | 1390 | 940 | 89 | 123388 | much shorter half-life for unblocking | 0.45 ± 0.102 | 12 | 14.1 |  |
